A short description of the series: relative stability and turnover of the crystalline forms. It is filed as physicochemical. The conditions noted are these: for thermodynamic stability of the crystalline form: solid form, Form II statement applies to the 5-70° C. range. From the text:
Alternatively, Form I can also be produced by solvent/anti solvent crystallizations where the solvent is (but limited not) DMSO or acetone and the antisolvent is (but not limited to) water, hexanes or heptanes. Form I can also be produced by slow evaporation of clear solutions of crude Example 1 in volatile solvents where the volatile solvent is (but not limited to) dichloromethane, acetone, or acetonitrile. Form I was characterized using PXRD, DSC, TGA and SCXRD.
Form II can be produced by recrystallization of Form I in a variety of organic solvents or mixtures thereof where the solvent(s) is (are) (but not limited to) ethyl acetate, isopropanol, acetone, dichloromethane, acetonitrile, tetrahydrofuran, water, ethanol, 2-methyl tetrahydrofuran, toluene, methanol, dimethyl formamide or cyclopentyl methyl ether. Form II was characterized using PXRD, DSC and TGA.
Type C can be produced by recrystallization of either Form I, Form II or Form III in solvent/antisolvent systems where the solvent is (but not limited to) acetone or dichloromethane and the antisolvent is (but not limited to) n-hexane or n-heptane.
Form III was produced by recrystallization of Type C in the solid state at 150° C. and under a N2 flow. Form III can also be formed in some instances from solution in acetone/n-heptane crystallizations. […] Form III was characterized using PXRD, DSC, TGA and SCXRD.

In the case of `COC(=O)NC[C@H]1CN(c2cc(F)c(N3CCS(=O)(=O)CC3)c(F)c2)C(=O)O1` [Form III, methyl ({(5S)-3-[4-(1,1-dioxo-1λ^6-thiomorpholin-4-yl)-3,5-difluorophenyl]-2-oxo-1,3-oxazolidin-5-yl}methyl)carbamate], the “thermodynamic stability of the crystalline form” value (from here on “thermodynamic stability”) is listed as “Quick turnovers to more thermodynamically stable phases Form I or Form II are readily observed within minutes to hours”.

On to `COC(=O)NC[C@H]1CN(c2cc(F)c(N3CCS(=O)(=O)CC3)c(F)c2)C(=O)O1` [Form II, methyl ({(5S)-3-[4-(1,1-dioxo-1λ^6-thiomorpholin-4-yl)-3,5-difluorophenyl]-2-oxo-1,3-oxazolidin-5-yl}methyl)carbamate], for which the “thermodynamic stability” value was “most thermodynamically stable form in the 5-70 °C range”.

Regarding `COC(=O)NC[C@H]1CN(c2cc(F)c(N3CCS(=O)(=O)CC3)c(F)c2)C(=O)O1` [Form I, methyl({(5S)-3-[4-(1,1-dioxo-1λ^6-thiomorpholin-4-yl)-3,5-difluorophenyl]-2-oxo-1,3-oxazolidin-5-yl}methyl)carbamate], the “thermodynamic stability” value is “kinetic phase and will recrystallize into Form II with time”.

On to `COC(=O)NC[C@H]1CN(c2cc(F)c(N3CCS(=O)(=O)CC3)c(F)c2)C(=O)O1` [Type C, methyl ({(5S)-3-[4-(1,1-dioxo-1λ^6-thiomorpholin-4-yl)-3,5-difluorophenyl]-2-oxo-1,3-oxazolidin-5-yl}methyl)carbamate], for which the “thermodynamic stability” value is recorded as “highly metastable”. The “lifetime in solution before turnover into a more thermodynamically stable phase” value (in solution) is listed as “a few hours”.

The record behind these values is US20260062394A1, “PROCESSES FOR PREPARING OXAZOLIDINONE COMPOUNDS” (Merck Sharp & Dohme LLC, priority 2022, published 2026).
